Experimental data: US20230073512A1, “MODULATORS OF CULLIN 3 ADAPTOR KBTBD4 AS ANTI-CANCER COMPOUNDS” (UNIVERSITE DE MONTREAL, priority 2019, published 2023)

Test system: AML3
Test: Cell proliferation of cancerous cell lines
Assay type: cell-based
Details: AML3; read-out: Antineoplastic effect of tested compounds on cell proliferation of cancerous AML3 cells, IC50

Row | Structure (SMILES) | IC50 [nM]
1 | COC(=O)c1ccc2c(c1)[nH]c1nc(Cc3ccccc3)nc(NCCNC(=O)C(F)F)c12 | 2000 to 5000
2 | COC(=O)c1ccc2c(c1)[nH]c1nc(Cc3ccsc3)nc(N[C@H]3CC[C@H](N)CC3)c12 | 1000 to 2000
3 | COC(=O)c1ccc2c(c1)[nH]c1nc(Cc3ccc(Br)cc3)nc(NCCCN3CCCCC3)c12 | 500 to 1000
4 | Cc1nc(-c2ccc3c(c2)[nH]c2ncnc(NCCCN4CCCCC4)c23)no1 | 2000 to 5000
5 | COC(=O)c1ccc2c(c1)[nH]c1nc(Cc3ccccc3)nc(Cl)c12 | 1000 to 2000
6 | CCn1nnc(-c2ccc3c(c2)[nH]c2ncnc(NCCCN4CCCCC4)c23)n1 | 2000 to 5000
7 | COC(=O)c1ccc2c(c1)[nH]c1nc(CC3CCCCC3)nc(NCCCN3CCCCC3)c12 | 2000 to 5000
8 | CNCCCNc1nc(Cc2ccccc2)nc2[nH]c3cc(C(=O)OC)ccc3c12 | 1000 to 2000
9 | COC(=O)c1ccc2c(c1)[nH]c1nc(Cc3ccccc3)nc(NCCCCCN(C)C)c12 | 500 to 1000
10 | COC(=O)c1ccc2c(c1)[nH]c1nc(Cc3ccccc3)nc(NCCCN3CCOCC3)c12 | 2000 to 5000
11 | COC(=O)c1ccc2c(c1)[nH]c1nc(Cc3ccccn3)nc(NCCCN3CCCCC3)c12 | 2000 to 5000
12 | COC(=O)c1ccc2c(c1)[nH]c1nc(C(O)c3ccccc3)nc(NCCCN3CCCCC3)c12 (stereo not shown) | 500 to 1000
13 | COC(=O)c1ccc2c(c1)[nH]c1ncnc(NCC#CCN3CCCCC3)c12 | 2000 to 5000
14 | COC(=O)c1ccc2c(c1)[nH]c1ncnc(NCCCN)c12 | 1000 to 2000

Target: T1, RCOR1, LSD1, HDAC2 in OCI-AML1 cells (Homo sapiens, UniProt O60341+Q92769+Q9UKL0)
T1 construct: nucleoplasmic proteins extracted from shLuc or shKBTBD4- transduced OCI-AML1 cells; endogenous in cells; host or cells: OCI-AML1 cells transduced with shLuc or shKBTBD4
Test: Western Blot of CoREST members
Assay type: cell-based
Details: OCI-AML1, UM171 250 nM plus MG132 10 μM or MLN2494 100 nM
Experimental: Representative blots (upper panel) showing KBTBD4, RCOR1, LSD1, HDAC2 and Nucleolin (NCL, loading control) protein levels. Quantification of RCOR1 protein levels were evaluated in 3 independent experiments (lower panel).
Representative blots (upper panel) showing CUL3, RCOR1 and TUBA (loading control) protein levels. Quantification of RCOR1 protein levels were evaluated in 2 independent experiments (lower panel).
Total protein extraction was performed in lysis buffer (25 mM tris ph7.5, 150 mM NaCl, 1% NP-40, protease inhibitors).

Row | Structure (SMILES) | UM171-induced loss of RCOR1 under co-treatment
15 | NS(=O)(=O)OC[C@@H]1C[C@@H](n2ccc3c(N[C@H]4CCc5ccccc54)ncnc32)C[C@@H]1O [MLN2494] | normal

Test system: not listed separately
Test: PK assays in mice, intravenous and oral
Details: orally administered at 20 mg/kg
Experimental: PK assays were performed in mice (n=3). […] The following pharmacokinetic parameters were calculated.
The compounds were orally administered at 20 mg/kg and plasma samples were collected at 15, 30 minutes and 1, 2, 4, 6 and 8 hours after administration. The following pharmacokinetic parameters were calculated.

Row | Structure (SMILES) | area under the curve (AUC) [µM·h] | bioavailability (% F) [%] | maximal time (tmax) [min]
16 | COC(=O)c1ccc2c(c1)[nH]c1ncnc(NCCCN3CCCCC3)c12 [UM729] | 1.2 | 19 | 48

Same assay, conditions: read-out: maximal concentration (Cmax), orally administered at 20 mg/kg

Row | Structure (SMILES) | Cmax [nM]
17 | COC(=O)c1ccc2c(c1)[nH]c1ncnc(NCCCN3CCCCC3)c12 [UM729] | 200
